Measurements: patent publication US11505558B1, “Antiviral heterocyclic compounds” (Enanta Pharmaceuticals, Inc., priority 2019, dated 2022)
pEC50: −log10 of the molar value. Read-outs that look alike come from different tables or passages of the source.

Columns and labels:
[1] = system: genotype A, "Long" strain RSV; test: RSV-A assay (CPE, ATPlite readout in Hep-2 cells); assay type: cell-based; settings: human respiratory syncytial virus
Outline: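 Protection from RSV-induced cytopathic effect, measured as ATPlite luminescence after 5 days, gave EC50 values. Assay used genotype A Long strain at MOI 0.1 on Hep-2 cells seeded at 8,000/well in DMEM growth media with 10% FBS; compounds tested as 2-fold dilutions in duplicate.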

[2] = system: recombinant HMPV CAN97-83 (MPV-GFP1); test: HMPV antiviral assay (MPV-GFP1 eGFP fluorescence in Vero E6 cells); assay type: cell-based; settings: human metapneumovirus, Vero C1008, 120 h, read-out: HMPV EC50
Method: HMPV antiviral activity was evaluated using a recombinant version of HMPV CAN97-83 engineered to contain the coding sequence for enhanced green fluorescence protein (eGFP) in the 3′ end of the virus genome (MPV-GFP1, ViraTree). Vero E6 cells ([…]) were seeded at a density of 12,000 cells/100 μL/well into 96-well cell plates one day prior to the assay. On the day of screening, the cell culture medium was aspirated from the wells and cells were washed twice with serum-free Eagle's Modified Essential Medium (EMEM, ATCC #) containing 1% penicillin-streptomycin (Invitrogen) (SF-EMEM). Cell washes were performed by dispensing 100 μL SF-EMEM per well and immediately aspirating the wash medium from the well. Following the second wash step, serum-free OptiMEM (Invitrogen, Cat No.) (SF-OptiMEM) containing 0.5 μg/mL TPCK-Trypsin (VENDOR) and 1% penicillin-streptomycin was added to the cells at 50 μL/well. Compounds were added into the 96-well plates using a JANUS automated liquid handling system (VENDOR). Compounds were initially diluted 1:50 into an intermediate 96-well plate containing SF-OptiMEM prior to transfer to the assay plate (25 μL/well). Each of the test compounds were tested in duplicate wells at final concentrations starting from 8 μM or 2 μM using ½ stepwise dilutions for a total of 8 points. Virus infection was performed by preparing a working stock of MPV-GFP1 at a multiplicity of infection (MOI) equal to 0.05/25 μL and aliquoting 25 μL of virus inoculum to the compound and positive control wells. SF-OptiMEM was added (25 μL/well) to the appropriate wells to serve as a virus-free negative control for the assay. The final DMSO concentration of all wells is 0.5%. Plates were incubated at 32° C., 5% CO2 for 5 days.
After 5 days incubation, eGFP fluorescence intensity was measured at […] using a Spectramax i3X plate reader (VENDOR). Percent viral inhibition was calculated using the following equation: y=[[…]−(XQ/XP)]×100 Where XQ is the fluorescence intensity measured in a well containing recombinant MPV-GFP1-infected, compound-treated cells and XP is the average fluorescence intensity measured in the wells containing untreated cells infected with recombinant virus. EC50 values were then calculated by non-linear regression using a four parameter curve logistic equation. The curve fit model employed was XLFit Dose Response One Site Model 200: y=(A+(B/(1+((x/C)^D)))) Where A is the minimum y value, B is the maximum y value, C is the log EC50 value, and D is the slope factor. […] EC50 ranges are as follows: A<0.5 μM; B>0.5 μM.

[3] = HEp-2, Hep-2 cells, genotype A "Long" strain RSV, MOI 0.1, read-out: Human RSV-A (“Long” strain) EC50

SMILES	pEC50 [1, 3]	pEC50 [2]	pEC50 ([1]; HEp-2, read-out: Human RSV-A (“Long” strain) EC50)
C[C@]1(C(=O)NC[C@H](O)CO)COc2c1cc([C@@](O)(CNC(=O)c1cc(OC3CC3)c3ncccc3c1)C(F)(F)F)nc2-c1ccc(F)cc1 [Example 493]	> 6.70	< 6.30	–
C[C@]1(C(=O)NCCC(N)=O)COc2c1cc([C@@](O)(CNC(=O)c1cc(OC3CC3)c3ncccc3c1)C(F)(F)F)nc2-c1ccc(F)cc1 [Example 477]	> 6.70	< 6.30	–
COc1cc(C(=O)NC[C@](O)(c2cc3c(c(-c4ccc(F)cc4)n2)OCC3(F)C(N)=O)C(F)(F)F)cc2cc(Cl)c(C)nc12 (stereo partly drawn) [Example 668]	> 6.70	> 6.30	–
CC(=O)Nc1cc(C(=O)NC[C@](O)(c2cc3c(c(-c4ccc(F)cc4)n2)OC[C@]3(C)C(N)=O)C(F)(F)F)cc2cccnc12 [Example 393]	> 6.70	> 6.30	–
Cc1cnc2c(NC(=O)c3cnc(C)o3)cc(C(=O)NC[C@](O)(c3cc4c(c(-c5ccc(F)cc5)n3)OC[C@]4(C)C(N)=O)C(F)(F)F)cc2c1 [Example 624]	> 6.70	> 6.30	–
COc1cc(C(=O)NCC(O)(c2cc3c(c(-c4ccc(F)cc4)n2)OC[C@]3(C)C(=O)NC2CC2)C(F)(F)F)cc2cccnc12 (stereo partly drawn) [Example 27]	> 6.70	> 6.30	–
C[C@]1(C(=O)NCCCN)COc2c1cc([C@@](O)(CNC(=O)c1cc(OC3CC3)c3ncccc3c1)C(F)(F)F)nc2-c1ccc(F)cc1 [Example 464]	> 6.70	< 6.30	–
Cn1cc2cc(C(=O)NC[C@](O)(c3cc4c(c(-c5ccc(F)cc5)n3)OC[C@]4(C)C(=O)NCC(C)(C)O)C(F)(F)F)ccc2n1 [Example 640]	> 6.70	< 6.30	–
COc1cc(C(=O)NC[C@](O)(c2cc3c(c(-c4ccc(F)c(Cl)c4)n2)OC[C@]3(C)C(N)=O)C(F)(F)F)cc2cc(C(F)(F)F)cnc12 [Example 558]	> 6.70	> 6.30	–
C[C@]1(C(N)=O)COc2c1cc([C@@](O)(CNC(=O)c1ccc(OC3CC3)c(OC3CC3)c1)C(F)(F)F)nc2-c1csc2c(F)cccc12 [Example 92]	> 6.70	> 6.30	–
C[C@]1(C(N)=O)COc2c1cc([C@@](O)(CNC(=O)c1ccc(OC3CC3)c(C3CC3)c1)C(F)(F)F)nc2-c1ccc(F)cc1 [Example 123]	> 6.70	< 6.30	–
Cc1cnc2c(NC(=O)c3ccon3)cc(C(=O)NC[C@](O)(c3cc4c(c(-c5ccc(F)cc5)n3)OC[C@]4(C)C(N)=O)C(F)(F)F)cc2c1 [Example 621]	> 6.70	< 6.30	–
CNC(=O)[C@@]1(C)COc2c1cc([C@@](O)(CNC(=O)c1cc(OC)c3ncccc3c1)C(F)(F)F)nc2-c1ccc(F)cc1 [Example 46]	> 6.70	> 6.30	–
COc1cc(C(=O)NC[C@](O)(c2cc3c(c(-c4ccc(F)cc4)n2)OCC3(F)C(N)=O)C(F)(F)F)cc2cn(C(F)F)nc12 (stereo partly drawn) [Example 670]	> 6.70	> 6.30	–
C[C@]1(CNCC2CC2)COc2c1cc([C@@](O)(CNC(=O)c1ccnc(C(F)(F)F)n1)C(F)(F)F)nc2-c1ccc(F)cc1 [Example 35]	< 6.70	< 6.30	–
C[C@]1(C(N)=O)COc2c1cc([C@@](O)(CNC(=O)c1cc(Oc3ccncc3)c3ncccc3c1)C(F)(F)F)nc2-c1ccc(F)cc1 [Example 388]	> 6.70	< 6.30	–
COc1cc(C(=O)NC[C@](O)(c2cc3c(c(-c4ccc(F)c(F)c4)n2)OC[C@]3(C)C(N)=O)C(F)(F)F)cc2cccnc12 [Example 87]	> 6.70	< 6.30	–
Cc1cnc2c(OC(=O)NC3(C)COC3)cc(C(=O)NC[C@](O)(c3cc4c(c(-c5ccc(F)cc5)n3)OC[C@]4(C)C(N)=O)C(F)(F)F)cc2c1 [Example 549]	–	< 6.30	> 6.70
Cn1cc2cc(C(=O)NC[C@](O)(c3cc4c(c(-c5ccc(F)c(Cl)c5)n3)OC[C@]4(C)C(N)=O)C3CC3)ccc2n1 [Example 638]	> 6.70	> 6.30	–
COc1cc(C(=O)NC[C@](O)(c2cc3c(c(-c4ccc(F)c(Cl)c4)n2)OC[C@]3(C)C(N)=O)C2CC2)cc2cc(Cl)cnc12 [Example 529]	> 6.70	> 6.30	–

SMILES	pEC50 [1, 3]	pEC50 [2]	pEC50 ([1]; HEp-2, read-out: Human RSV-A (“Long” strain) EC50)
Cc1nc(-c2ccc(C(=O)NC[C@](O)(c3cc4c(c(-c5ccc(F)cc5)n3)OC[C@]4(C)C(N)=O)C(F)(F)F)cc2OC2CC2)co1 [Example 196]	< 6.70	< 6.30	–
C[C@]1(C(N)=O)COc2c1cc([C@@](O)(CNC(=O)c1cc(OC3CC3)c3ncccc3c1)C(F)(F)F)nc2-c1ccc(F)c(C(F)(F)F)c1 [Example 85]	> 6.70	> 6.30	–
C[C@]1(C(N)=O)COc2c1cc([C@@](O)(CNC(=O)c1cc(Nc3ccncc3)c3ncccc3c1)C(F)(F)F)nc2-c1ccc(F)cc1 [Example 336]	> 6.70	< 6.30	–
C[C@]1(C(=O)N[C@H]2C[C@@H](O)C2)COc2c1cc([C@@](O)(CNC(=O)c1cc(OC3CC3)c3ncccc3c1)C(F)(F)F)nc2-c1ccc(F)cc1 [Example 466]	> 6.70	> 6.30	–
C[C@]1(C(N)=O)COc2c1cc([C@@](O)(CNC(=O)c1cc(NC(=O)c3ncco3)c3ncccc3c1)C(F)(F)F)nc2-c1ccc(F)cc1 [Example 398]	> 6.70	> 6.30	–
C[C@]1(C(N)=O)COc2c1cc([C@@](O)(CNC(=O)c1cc(Nc3ncccn3)c3ncccc3c1)C(F)(F)F)nc2-c1ccc(F)cc1 [Example 337]	> 6.70	< 6.30	–
COc1cc(C(=O)NC[C@](O)(c2cc3c(c(-c4ccc(F)cc4)n2)OC[C@]3(C)C(N)=O)C(F)(F)F)cc2cc(Cl)cnc12 [Example 520]	> 6.70	> 6.30	–
Cc1cncc(-c2cc(C(=O)NC[C@](O)(c3cc4c(c(-c5ccc(F)cc5)n3)OC[C@]4(C)C(N)=O)C(F)(F)F)ccc2OC2CC2)c1 [Example 103]	> 6.70	< 6.30	–
C[C@]1(C(N)=O)COc2c1cc([C@@](O)(CNC(=O)c1ccc(OC3CC3)c(-c3cncc(C(F)(F)F)c3)c1)C(F)(F)F)nc2-c1ccc(F)cc1 [Example 104]	< 6.70	< 6.30	–
COc1cc(C(=O)NC[C@](O)(c2cc3c(c(-c4ccc(F)c(Cl)c4)n2)OC[C@]3(C)C(N)=O)C(F)(F)F)cc2cccnc12 [Example 86]	> 6.70	> 6.30	–
COc1cc(C(=O)NC[C@](O)(c2cc3c(c(-c4ccc(F)c(Cl)c4)n2)OC[C@]3(C)C(N)=O)C2CC2)cc2cc(C3CC3)cnc12 [Example 523]	> 6.70	> 6.30	–
Cc1ccc2cc(C(=O)NC[C@](O)(c3cc4c(c(-c5ccc(F)cc5)n3)OC[C@]4(C)C(N)=O)C(F)(F)F)cc(OC3CC3)c2n1 [Example 223]	> 6.70	> 6.30	–
Cc1cnc(-c2ccc(C(=O)NC[C@](O)(c3cc4c(c(-c5ccc(F)cc5)n3)OC[C@]4(C)C(N)=O)C(F)(F)F)cc2OC2CC2)o1 [Example 179]	> 6.70	< 6.30	–
C[C@]1(C(N)=O)COc2c1cc([C@@](O)(CNC(=O)c1cc(OC3CC3)c3ncc(Cl)cc3c1)C1CC1)nc2-c1ccc(F)cc1 [Example 530]	> 6.70	> 6.30	–
C[C@]1(C(=O)NCCCNC(N)=O)COc2c1cc([C@@](O)(CNC(=O)c1cc(OC3CC3)c3ncccc3c1)C(F)(F)F)nc2-c1ccc(F)cc1 [Example 479]	> 6.70	< 6.30	–
COc1cc(C(=O)NC[C@](O)(c2cc3c(c(-c4ccc(F)cc4)n2)OC[C@]3(C)C(N)=O)C(F)(F)F)cc2sc(N)nc12 [Example 431]	> 6.70	> 6.30	–
C[C@]1(C(N)=O)COc2c1cc([C@@](O)(CNC(=O)c1ccc(OC3CC3)c(OC3CC3)c1)C(F)(F)F)nc2-c1ccc(F)c(C(F)(F)F)c1 [Example 96]	> 6.70	> 6.30	–
C[C@]1(C(N)=O)COc2c1cc([C@@](O)(CNC(=O)c1ccc3nc(N)sc3c1)C(F)(F)F)nc2-c1ccc(F)cc1 [Example 429]	> 6.70	< 6.30	–
COc1nc2c(OC)cc(C(=O)NC[C@](O)(c3cc4c(c(-c5ccc(F)cc5)n3)OC[C@]4(C)C(N)=O)C(F)(F)F)cc2s1 [Example 445]	> 6.70	> 6.30	–
